pEC50: −log10 of the molar value. Like-named read-outs stand apart in the source and are kept apart here.
Target: T1, human β3-AR (Homo sapiens, UniProt P13945)
T1 construct: expressed in transfected cells; host or cells: CHO (Chinese hamster ovary) cells, stably transfected
Assay: cAMP functional agonist assay (LANCE TR-FRET) in CHO cells expressing cloned human β3-AR
Assay type: cell-based
Conditions: for Fold drop in potency vs. 2-chloropyridine analog: EC50 of comparative example divided by EC50 of corresponding 2-chloropyridine compound; for Human β3-AR Agonist Activity (%): percent maximum activation relative to isoproterenol

[1] = CHO cells stably expressing cloned human β3-adrenoceptor, cAMP release, read-out: Human β3-AR Agonism EC50

T1 sequence (P13945 whole entry): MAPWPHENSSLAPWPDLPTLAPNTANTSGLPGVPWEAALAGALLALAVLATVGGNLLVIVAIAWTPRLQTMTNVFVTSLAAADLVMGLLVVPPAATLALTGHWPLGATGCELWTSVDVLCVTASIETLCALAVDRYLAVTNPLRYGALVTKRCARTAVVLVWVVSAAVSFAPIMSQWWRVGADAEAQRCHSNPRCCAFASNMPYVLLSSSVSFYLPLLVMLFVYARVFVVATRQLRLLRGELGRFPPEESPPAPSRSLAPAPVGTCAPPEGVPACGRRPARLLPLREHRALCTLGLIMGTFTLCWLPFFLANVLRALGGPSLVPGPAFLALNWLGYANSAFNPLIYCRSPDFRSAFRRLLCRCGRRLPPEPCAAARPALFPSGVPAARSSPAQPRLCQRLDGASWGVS

pEC50 [1]	Fold drop in potency vs. 2-chloropyridine analog	Human β3-AR Agonist Activity (%)	SMILES	pEC50
7.06	87.0 fold	111%	CN(Cc1cncc(C(=O)O)c1)C(=O)c1ccc(C[C@@H]2CC[C@H]([C@H](O)c3ccccc3)N2)cc1 [Example 33-B, 5-((4-(((2S,5R)-5-((R)-hydroxy(phenyl)methyl)pyrrolidin-2-yl)methyl)-N-methylbenzamido)methyl)nicotinic acid]	
6.84	4.1 fold	98%	CN(Cc1cccnc1F)C(=O)c1ccc(C[C@@H]2CC[C@H]([C@H](O)c3cccc(F)c3)N2)cc1 [Example 26-C, 4-(((2S,5R)-5-((R)-(3-fluorophenyl)(hydroxy)methyl)pyrrolidin-2-yl)methyl)-N-((2-fluoropyridin-3-yl)methyl)-N-methylbenzamide]	
8.22	3.5 fold	83%	CC(c1cnccn1)N(C)C(=O)c1ccc(C[C@@H]2CC[C@H]([C@H](O)c3ccc(F)cc3)N2)cc1 (stereo partly drawn) [Example 41-F, 4-(((2S,5R)-5-((R)-(4-fluorophenyl)(hydroxy)methyl)pyrrolidin-2-yl)methyl)-N-methyl-N-(1-(pyrazin-2-yl)ethyl)benzamide]	
8.40		94%	Cc1[nH]nc(CN(C)C(=O)c2ccc(C[C@@H]3CC[C@H]([C@H](O)c4ccc(Cl)nc4)N3)cc2)c1Cl [Example 17-A, N-((4-chloro-5-methyl-1H-pyrazol-3-yl)methyl)-4-(((2S,5R)-5-((R)-(6-chloropyridin-3-yl)(hydroxy)methyl)pyrrolidin-2-yl)methyl)-N-methylbenzamide]	
8.70		102%	CCC(c1cc(C)n[nH]1)N(C)C(=O)c1ccc(C[C@@H]2CC[C@H]([C@H](O)c3ccc(Cl)nc3)N2)cc1 (stereo partly drawn) [Example 5-A, 4-(((2S,5R)-5-((R)-(6-chloropyridin-3-yl)(hydroxy)methyl)pyrrolidin-2-yl)methyl)-N-methyl-N-(1-(5-methyl-1H-pyrazol-3-yl)propyl)benzamide]	
7.66	13.9 fold	98%	CN(Cc1cc(C(F)(F)F)[nH]n1)C(=O)c1ccc(C[C@@H]2CC[C@H]([C@H](O)c3cccnc3)N2)cc1 [Example 10-H, 4-(((2S,5R)-5-((R)-hydroxy(pyridin-3-yl)methyl)pyrrolidin-2-yl)methyl)-N-methyl-N-((5-(trifluoromethyl)-1H-pyrazol-3-yl)methyl)benzamide]	
6.64	5.4 fold	106%	CN(C(=O)c1ccc(C[C@@H]2CC[C@H]([C@H](O)c3ccccc3)N2)cc1)C1CCc2ncccc21 (stereo partly drawn) [Example 24-B, N-(6,7-dihydro-5H-cyclopenta[b]pyridin-5-yl)-4-(((2S,5R)-5-((R)-hydroxy(phenyl)methyl)pyrrolidin-2-yl)methyl)-N-methylbenzamide]	
6.98	38.1 fold	101%	COCc1cc(CN(C)C(=O)c2ccc(C[C@@H]3CC[C@H]([C@H](O)c4cccnc4)N3)cc2)n[nH]1 [Example 9-H, 4-(((2S,5R)-5-((R)-hydroxy(pyridin-3-yl)methyl)pyrrolidin-2-yl)methyl)-N-((5-(methoxymethyl)-1H-pyrazol-3-yl)methyl)-N-methylbenzamide]	
7.89		94%	CN(Cc1cncc(C(C)(C)O)c1)C(=O)c1ccc(C[C@@H]2CC[C@H]([C@H](O)c3ccc(Cl)nc3)N2)cc1 [Example 32-A, 4-(((2S,5R)-5-((R)-(6-chloropyridin-3-yl)(hydroxy)methyl)pyrrolidin-2-yl)methyl)-N-((5-(2-hydroxypropan-2-yl)pyridin-3-yl)methyl)-N-methylbenzamide]	
8.70		98%	CC(c1cnccn1)N(C)C(=O)c1ccc(C[C@@H]2CC[C@H]([C@H](O)c3ccc(Cl)nc3)N2)cc1 (stereo partly drawn) [Example 41-A, 4-(((2S,5R)-5-((R)-(6-chloropyridin-3-yl)(hydroxy)methyl)pyrrolidin-2-yl)methyl)-N-methyl-N-(1-(pyrazin-2-yl)ethyl)benzamide]	
5.79	<0.12 fold	79%	Cc1nnc2ccc(CN(C)C(=O)c3ccc(C[C@@H]4CC[C@H]([C@H](O)c5ccccc5)N4)cc3)cn12 [Example 43-B, 4-(((2S,5R)-5-((R)-hydroxy(phenyl)methyl)pyrrolidin-2-yl)methyl)-N-methyl-N-((3-methyl-[1,2,4]triazolo[4,3-a]pyridin-6-yl)methyl)benzamide]	
6.73	3.2 fold	110%	CC(C)c1cc(CN(C)C(=O)c2ccc(C[C@@H]3CC[C@H]([C@H](O)c4ccccc4)N3)cc2)n[nH]1 [Example 7-B, 4-(((2S,5R)-5-((R)-hydroxy(phenyl)methyl)pyrrolidin-2-yl)methyl)-N-((5-isopropyl-1H-pyrazol-3-yl)methyl)-N-methylbenzamide]	
7.20	1.4 fold	102%	CN(Cc1cncc(C(=O)O)c1)C(=O)c1ccc(C[C@@H]2CC[C@H]([C@H](O)c3ccc(Cl)cc3)N2)cc1 [Example 33-G, 5-((4-(((2S,5R)-5-((R)-(4-chlorophenyl)(hydroxy)methyl)pyrrolidin-2-yl)methyl)-N-methylbenzamido)methyl)nicotinic acid]	
8.52		94%	CN(Cc1ccnnc1)C(=O)c1ccc(C[C@@H]2CC[C@H]([C@H](O)c3ccc(Cl)nc3)N2)cc1 [Example 42-A, 4-(((2S,5R)-5-((R)-(6-chloropyridin-3-yl)(hydroxy)methyl)pyrrolidin-2-yl)methyl)-N-methyl-N-(pyridazin-4-ylmethyl)benzamide]	
8.30	3.2 fold	110%	CN(Cc1cc(C(F)(F)F)[nH]n1)C(=O)c1ccc(C[C@@H]2CC[C@H]([C@H](O)c3ccccc3)N2)cc1 [Example 10-B, 4-(((2S,5R)-5-((R)-hydroxy(phenyl)methyl)pyrrolidin-2-yl)methyl)-N-methyl-N-((5-(trifluoromethyl)-1H-pyrazol-3-yl)methyl)benzamide]	
8.70		99%	CN(Cc1nc2ccsc2c(=O)[nH]1)C(=O)c1ccc(C[C@@H]2CC[C@H]([C@H](O)c3ccc(Cl)nc3)N2)cc1 [Example 44-A, 4-(((2S,5R)-5-((R)-(6-chloropyridin-3-yl)(hydroxy)methyl)pyrrolidin-2-yl)methyl)-N-methyl-N-((4-oxo-3,4-dihydrothieno[3,2-d]pyrimidin-2-yl)methyl)benzamide]	
8.22	4.5 fold	99%	CN(Cc1cccc(=O)[nH]1)C(=O)c1ccc(C[C@@H]2CC[C@H]([C@H](O)c3ccc(Cl)cc3)N2)cc1 [Example 20-G]	
7.23		95%	CC(C)c1cc(CN(C)C(=O)c2ccc(C[C@@H]3CC[C@H]([C@H](O)c4ccc(Cl)nc4)N3)cc2)n[nH]1 [Example 7-A, 4-(((2S,5R)-5-((R)-(6-chloropyridin-3-yl)(hydroxy)methyl)pyrrolidin-2-yl)methyl)-N-((5-isopropyl-1H-pyrazol-3-yl)methyl)-N-methylbenzamide]	
7.02		100%	COCCN(C)C(=O)c1ccc(C[C@@H]2CC[C@H]([C@H](O)c3ccc(Cl)nc3)N2)cc1 [Example 1-A]	
8.15	2.4 fold	92%	Cc1cc(C(Cc2ccccc2)N(C)C(=O)c2ccc(C[C@@H]3CC[C@H]([C@H](O)c4cccnc4)N3)cc2)[nH]n1 (stereo partly drawn) [Example 6-H, 4-(((2S,5R)-5-((R)-hydroxy(pyridin-3-yl)methyl)pyrrolidin-2-yl)methyl)-N-methyl-N-(1-(5-methyl-1H-pyrazol-3-yl)-2-phenylethyl)benzamide]	

SMILES	pEC50 [1]	Fold drop in potency vs. 2-chloropyridine analog	Human β3-AR Agonist Activity (%)	pEC50
CCN(Cc1cccnc1)C(=O)c1ccc(C[C@@H]2CC[C@H]([C@H](O)c3ccc(Cl)nc3)N2)cc1 [Example 22-A, 4-(((2S,5R)-5-((R)-(6-chloropyridin-3-yl)(hydroxy)methyl)pyrrolidin-2-yl)methyl)-N-ethyl-N-(pyridin-3-ylmethyl)benzamide]	8.30		62%	
CN(Cc1cccnc1)C(=O)c1ccc(C[C@@H]2CC[C@H]([C@H](O)c3cccc(Cl)c3)N2)cc1 [Example 21-D, 4-(((2S,5R)-5-((R)-(3-chlorophenyl)(hydroxy)methyl)pyrrolidin-2-yl)methyl)-N-methyl-N-(pyridin-3-ylmethyl)benzamide]	6.92	28.2 fold	97%	
CC(c1cccnc1)N(C)C(=O)c1ccc(C[C@@H]2CC[C@H]([C@H](O)c3ccc(Cl)nc3)N2)cc1 (stereo partly drawn) [Example 23-A, 4-(((2S,5R)-5-((R)-(6-chloropyridin-3-yl)(hydroxy)methyl)pyrrolidin-2-yl)methyl)-N-methyl-N-(1-(pyridin-3-yl)ethyl)benzamide]			96%	8.70
Cc1cc([C@@H](O)[C@H]2CC[C@@H](Cc3ccc(C(=O)N(C)Cc4cccnc4)cc3)N2)cnc1Cl [Example 21-S, 4-(((2S,5R)-5-((R)-(6-chloro-5-methylpyridin-3-yl)(hydroxy)methyl)pyrrolidin-2yl)methyl)-N-methyl-N-(pyridin-3-ylmethyl)benzamide]	6.51	72.1 fold	84%	

Reference: US20160235727A1, “NOVEL PYRROLIDINE DERIVED BETA 3 ADRENERGIC RECEPTOR AGONISTS” (Merck Sharp & Dohme Corp., priority 2013, published 2016)
